# From PubChem BioAssay (NCI)
#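 Five compound concentrations were applied to cells in 96-well plates for 48 hours; endpoints were derived by simple linear interpolation of the resulting dose-response curve. Definition used: TGI = concentration required for complete inhibition of growth.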
# Columns and labels:
# Test in all cases: DTP human tumour cell line panel, 48 h
# 786-0 renal = system: 786-0 renal
# A498 renal = system: A498 renal
# A549 NSCLC = system: A549 NSCLC
# ACHN renal = system: ACHN renal
# BT-549 breast = system: BT-549 breast
# CAKI-1 renal = system: CAKI-1 renal
# CCRF-CEM leukemia = system: CCRF-CEM leukemia
# COLO 205 colon = system: COLO 205 colon
# DU-145 prostate = system: DU-145 prostate
# HCC-2998 colon = system: HCC-2998 colon
# HCT-116 colon = system: HCT-116 colon
# HCT-15 colon = system: HCT-15 colon
# HL-60(TB) leukemia = system: HL-60(TB) leukemia
# HOP-62 NSCLC = system: HOP-62 NSCLC
# HOP-92 NSCLC = system: HOP-92 NSCLC
# HS 578T breast = system: HS 578T breast
# HT29 colon = system: HT29 colon
# IGROV1 ovarian = system: IGROV1 ovarian
# K-562 leukemia = system: K-562 leukemia
# KM12 colon = system: KM12 colon
# M14 melanoma = system: M14 melanoma
# MCF7 breast = system: MCF7 breast
# MDA-MB-231 breast = system: MDA-MB-231 breast
# MDA-MB-435 = system: MDA-MB-435
# MDA-N = system: MDA-N
# MOLT-4 leukemia = system: MOLT-4 leukemia
# NCI-H226 lung = system: NCI-H226 lung
# NCI-H23 lung = system: NCI-H23 lung
# NCI-H460 lung = system: NCI-H460 lung
# NCI-H522 lung = system: NCI-H522 lung
# NCI/ADR-RES ovarian = system: NCI/ADR-RES ovarian
# OVCAR-3 ovarian = system: OVCAR-3 ovarian
# OVCAR-4 ovarian = system: OVCAR-4 ovarian
# OVCAR-5 ovarian = system: OVCAR-5 ovarian
# OVCAR-8 ovarian = system: OVCAR-8 ovarian
# PC-3 prostate = system: PC-3 prostate
# RPMI-8226 leukemia = system: RPMI-8226 leukemia
# RXF 393 renal = system: RXF 393 renal
# SF-268 CNS = system: SF-268 CNS
# SF-295 CNS = system: SF-295 CNS
# SF-539 CNS = system: SF-539 CNS
# SK-MEL-2 melanoma = system: SK-MEL-2 melanoma
# SK-MEL-28 melanoma = system: SK-MEL-28 melanoma
# SK-MEL-5 melanoma = system: SK-MEL-5 melanoma
# SK-OV-3 ovarian = system: SK-OV-3 ovarian
# SN12C renal = system: SN12C renal
# SNB-19 CNS = system: SNB-19 CNS
# SNB-75 CNS = system: SNB-75 CNS
# SR leukemia = system: SR leukemia
# SW-620 colon = system: SW-620 colon
# T-47D breast = system: T-47D breast
# TK-10 renal = system: TK-10 renal
# U251 CNS = system: U251 CNS
# UACC-257 melanoma = system: UACC-257 melanoma
# UACC-62 melanoma = system: UACC-62 melanoma
# UO-31 renal = system: UO-31 renal
# DLD-1 colon = system: DLD-1 colon
# DMS 114 small cell lung = system: DMS 114 small cell lung
# DMS 273 small cell lung = system: DMS 273 small cell lung
# EKVX NSCLC = system: EKVX NSCLC
# KM20L2 colon = system: KM20L2 colon
# LOX IMVI melanoma = system: LOX IMVI melanoma
# LXFL 529 NSCLC = system: LXFL 529 NSCLC
# M19-MEL melanoma = system: M19-MEL melanoma
# MALME-3M melanoma = system: MALME-3M melanoma
# SNB-78 CNS = system: SNB-78 CNS
# XF 498 CNS = system: XF 498 CNS
compound,measurement,setting,value
CCCC(=O)Nc1cc(/C=C/C(=O)N2CC(CCl)c3c2cc([N+](=O)[O-])c2ccccc32)n(C)c1 (configuration not stated),TGI,786-0 renal,> 100 µM
same,TGI,A498 renal,> 87.9 µM
same,TGI,A549 NSCLC,> 100 µM
same,TGI,ACHN renal,> 100 µM
same,TGI,BT-549 breast,> 100 µM
same,TGI,CAKI-1 renal,> 100 µM
same,TGI,CCRF-CEM leukemia,> 100 µM
same,TGI,COLO 205 colon,> 100 µM
same,TGI,DU-145 prostate,> 100 µM
same,TGI,HCC-2998 colon,> 100 µM
same,TGI,HCT-116 colon,> 100 µM
same,TGI,HCT-15 colon,> 100 µM
same,TGI,HL-60(TB) leukemia,27.2 µM
same,TGI,HOP-62 NSCLC,> 100 µM
same,TGI,HOP-92 NSCLC,> 100 µM
same,TGI,HS 578T breast,> 100 µM
same,TGI,HT29 colon,> 100 µM
same,TGI,IGROV1 ovarian,> 100 µM
same,TGI,K-562 leukemia,> 100 µM
same,TGI,KM12 colon,> 82.6 µM
same,TGI,M14 melanoma,> 100 µM
same,TGI,MCF7 breast,> 100 µM
same,TGI,MDA-MB-231 breast,> 100 µM
same,TGI,MDA-MB-435,> 100 µM
same,TGI,MDA-N,> 100 µM
same,TGI,MOLT-4 leukemia,> 100 µM
same,TGI,NCI-H226 lung,> 100 µM
same,TGI,NCI-H23 lung,> 100 µM
same,TGI,NCI-H460 lung,> 100 µM
same,TGI,NCI-H522 lung,> 100 µM
same,TGI,NCI/ADR-RES ovarian,> 100 µM
same,TGI,OVCAR-3 ovarian,> 100 µM
same,TGI,OVCAR-4 ovarian,> 100 µM
same,TGI,OVCAR-5 ovarian,> 100 µM
same,TGI,OVCAR-8 ovarian,> 100 µM
same,TGI,PC-3 prostate,> 100 µM
same,TGI,RPMI-8226 leukemia,> 100 µM
same,TGI,RXF 393 renal,> 100 µM
same,TGI,SF-268 CNS,> 100 µM
same,TGI,SF-295 CNS,> 100 µM
same,TGI,SF-539 CNS,> 100 µM
same,TGI,SK-MEL-2 melanoma,> 100 µM
same,TGI,SK-MEL-28 melanoma,> 100 µM
same,TGI,SK-MEL-5 melanoma,> 100 µM
same,TGI,SK-OV-3 ovarian,> 100 µM
same,TGI,SN12C renal,> 100 µM
same,TGI,SNB-19 CNS,> 100 µM
same,TGI,SNB-75 CNS,97.7 µM
same,TGI,SR leukemia,> 100 µM
same,TGI,SW-620 colon,> 100 µM
same,TGI,T-47D breast,> 100 µM
same,TGI,TK-10 renal,> 100 µM
same,TGI,U251 CNS,> 100 µM
same,TGI,UACC-257 melanoma,> 100 µM
same,TGI,UACC-62 melanoma,> 100 µM
same,TGI,UO-31 renal,> 100 µM
CCO/C=C1\N=C(C(Cl)c2ccccc2)OC1=O (configuration not stated),TGI,786-0 renal,> 100 µM
same,TGI,A498 renal,> 100 µM
same,TGI,A549 NSCLC,> 100 µM
same,TGI,ACHN renal,> 100 µM
same,TGI,CAKI-1 renal,> 100 µM
same,TGI,CCRF-CEM leukemia,> 100 µM
same,TGI,COLO 205 colon,> 100 µM
same,TGI,DLD-1 colon,> 100 µM
same,TGI,DMS 114 small cell lung,> 100 µM
same,TGI,DMS 273 small cell lung,> 100 µM
same,TGI,EKVX NSCLC,> 100 µM
same,TGI,HCC-2998 colon,> 100 µM
same,TGI,HCT-15 colon,> 100 µM
same,TGI,HL-60(TB) leukemia,> 100 µM
same,TGI,HOP-62 NSCLC,> 100 µM
same,TGI,HOP-92 NSCLC,> 100 µM
same,TGI,HT29 colon,> 100 µM
same,TGI,IGROV1 ovarian,> 100 µM
same,TGI,K-562 leukemia,> 100 µM
same,TGI,KM12 colon,> 100 µM
same,TGI,KM20L2 colon,> 100 µM
same,TGI,LOX IMVI melanoma,> 100 µM
same,TGI,LXFL 529 NSCLC,> 100 µM
same,TGI,M14 melanoma,> 100 µM
same,TGI,M19-MEL melanoma,> 100 µM
same,TGI,MALME-3M melanoma,> 100 µM
same,TGI,MOLT-4 leukemia,> 100 µM
same,TGI,NCI-H226 lung,> 100 µM
same,TGI,NCI-H23 lung,> 100 µM
same,TGI,NCI-H460 lung,> 100 µM
same,TGI,NCI-H522 lung,> 100 µM
same,TGI,OVCAR-3 ovarian,> 100 µM
same,TGI,OVCAR-4 ovarian,> 100 µM
same,TGI,OVCAR-5 ovarian,> 100 µM
same,TGI,OVCAR-8 ovarian,> 100 µM
same,TGI,RPMI-8226 leukemia,> 100 µM
same,TGI,RXF 393 renal,> 100 µM
same,TGI,SF-268 CNS,> 100 µM
same,TGI,SF-295 CNS,> 100 µM
same,TGI,SF-539 CNS,> 100 µM
same,TGI,SK-MEL-2 melanoma,> 100 µM
same,TGI,SK-MEL-28 melanoma,> 100 µM
same,TGI,SK-MEL-5 melanoma,> 100 µM
same,TGI,SN12C renal,> 100 µM
same,TGI,SNB-19 CNS,> 100 µM
same,TGI,SNB-75 CNS,> 100 µM
same,TGI,SNB-78 CNS,> 100 µM
same,TGI,SW-620 colon,> 100 µM
same,TGI,TK-10 renal,> 100 µM
same,TGI,UACC-257 melanoma,> 100 µM
same,TGI,UACC-62 melanoma,> 100 µM
same,TGI,UO-31 renal,> 100 µM
same,TGI,XF 498 CNS,> 100 µM
C[C@]12CC[C@H](O)CC1=CC[C@@H]1[C@@H]2CC[C@]2(C)c3nc(Cl)ccc3C[C@@H]12,TGI,786-0 renal,> 100 µM
same,TGI,A498 renal,> 100 µM
same,TGI,A549 NSCLC,96.9 µM
same,TGI,ACHN renal,> 100 µM
same,TGI,BT-549 breast,> 100 µM
same,TGI,CAKI-1 renal,> 100 µM
same,TGI,CCRF-CEM leukemia,> 50.4 µM
same,TGI,COLO 205 colon,> 100 µM
same,TGI,DU-145 prostate,> 100 µM
same,TGI,EKVX NSCLC,> 71.6 µM
same,TGI,HCC-2998 colon,> 100 µM
same,TGI,HCT-116 colon,> 100 µM
same,TGI,HCT-15 colon,> 81.3 µM
same,TGI,HL-60(TB) leukemia,> 100 µM
same,TGI,HOP-62 NSCLC,> 67.6 µM
same,TGI,HOP-92 NSCLC,> 100 µM
same,TGI,HS 578T breast,> 100 µM
same,TGI,HT29 colon,> 100 µM
same,TGI,IGROV1 ovarian,> 100 µM
same,TGI,K-562 leukemia,> 100 µM
same,TGI,KM12 colon,> 100 µM
same,TGI,LOX IMVI melanoma,> 100 µM
same,TGI,M14 melanoma,> 100 µM
same,TGI,MALME-3M melanoma,> 100 µM
same,TGI,MCF7 breast,> 100 µM
same,TGI,MDA-MB-231 breast,> 100 µM
same,TGI,MDA-MB-435,> 100 µM
same,TGI,MDA-N,> 100 µM
same,TGI,MOLT-4 leukemia,> 100 µM
same,TGI,NCI-H226 lung,> 100 µM
same,TGI,NCI-H23 lung,> 100 µM
same,TGI,NCI-H460 lung,> 100 µM
same,TGI,NCI-H522 lung,> 100 µM
same,TGI,NCI/ADR-RES ovarian,> 100 µM
same,TGI,OVCAR-3 ovarian,> 73.2 µM
same,TGI,OVCAR-4 ovarian,> 100 µM
same,TGI,OVCAR-5 ovarian,> 100 µM
same,TGI,OVCAR-8 ovarian,> 100 µM
same,TGI,PC-3 prostate,> 100 µM
same,TGI,RPMI-8226 leukemia,> 100 µM
same,TGI,RXF 393 renal,> 100 µM
same,TGI,SF-268 CNS,> 75.7 µM
same,TGI,SF-295 CNS,> 100 µM
same,TGI,SF-539 CNS,37.2 µM
same,TGI,SK-MEL-2 melanoma,> 100 µM
same,TGI,SK-MEL-28 melanoma,> 100 µM
same,TGI,SK-MEL-5 melanoma,> 100 µM
same,TGI,SK-OV-3 ovarian,99.2 µM
same,TGI,SN12C renal,> 94.8 µM
same,TGI,SNB-19 CNS,> 100 µM
same,TGI,SNB-75 CNS,46.8 µM
same,TGI,SR leukemia,> 100 µM
same,TGI,SW-620 colon,> 100 µM
same,TGI,T-47D breast,> 100 µM
same,TGI,TK-10 renal,> 100 µM
same,TGI,U251 CNS,> 100 µM
same,TGI,UACC-257 melanoma,> 100 µM
same,TGI,UACC-62 melanoma,> 100 µM
